In data set [1] the target is T1, 12-LO (Homo sapiens, UniProt P18054).
T1 construct: 12-HETE (12-LO product from platelets in PMNL preparations); endogenous in cells; host or cells: platelets contaminating human PMNL preparations
T1 sequence (P18054 1-663): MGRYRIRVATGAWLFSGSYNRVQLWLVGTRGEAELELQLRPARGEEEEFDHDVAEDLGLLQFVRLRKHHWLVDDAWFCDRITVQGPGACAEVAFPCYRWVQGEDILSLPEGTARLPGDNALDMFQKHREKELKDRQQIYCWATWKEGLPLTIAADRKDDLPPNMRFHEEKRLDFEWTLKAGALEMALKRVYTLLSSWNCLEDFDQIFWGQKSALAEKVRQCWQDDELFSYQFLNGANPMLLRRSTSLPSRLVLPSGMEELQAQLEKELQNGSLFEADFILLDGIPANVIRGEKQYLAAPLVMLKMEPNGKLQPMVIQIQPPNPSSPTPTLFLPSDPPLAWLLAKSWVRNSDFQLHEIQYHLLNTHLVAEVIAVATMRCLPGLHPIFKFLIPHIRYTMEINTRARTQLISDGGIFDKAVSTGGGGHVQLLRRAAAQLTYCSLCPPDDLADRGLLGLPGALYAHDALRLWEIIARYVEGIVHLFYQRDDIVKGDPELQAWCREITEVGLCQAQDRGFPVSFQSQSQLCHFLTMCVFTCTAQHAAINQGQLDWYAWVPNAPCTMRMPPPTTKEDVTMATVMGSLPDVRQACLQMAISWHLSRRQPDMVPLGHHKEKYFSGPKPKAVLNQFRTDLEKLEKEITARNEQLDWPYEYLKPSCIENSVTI
Nature of the data set: 12-LO product formation in A23187/AA-activated PMNL. Format: cell-based.

Data set [2] is described as follows: LCM quantitation in plasma of healthy volunteers (UPLC-MS/MS). More on the design: species or system human. As to conditions: endogenous; ten healthy volunteers. Here is the method:
The diversity of LCMs in vivo is poorly investigated and limited to the analysis of plasma[27] and liver. To quantify vitamin E metabolites in plasma and tissues, we developed a sensitive ultraperformance liquid chromatography ESI tandem mass spectrometry (UPLC-MS/MS)-based quantitation method. […] The detection response of α-T-13′-COOH (4a) was linear between 1 and 250 nM (Fig. 2a), with lower limits of detection between 0.5 and 4 nM for ω-carboxylates and 4 and 250 nM for ω-alcohols (Supplementary Table 3).
Human PMNL, monocytes, PBMC, and platelets were freshly isolated from leukocyte concentrates. The protocols for experiments with human blood and blood cells were approved by the ethical commission of the Friedrich-Schiller-University Jena. […]
LCMs were separated on an Acquity UPLC BEH C18 column (1.7 µm, 2.1 × 50 mm, Waters) at a flow rate of 0.8 ml/min at 45 °C: 0 to 4.5 min, gradient from 50% mobile phase A (acetonitrile/water, 10/90, 0.07% formic acid)/50% mobile phase B (acetonitrile, 0.07% formic acid) to 100% B; 4.5 to 5.5 min, isocratic at 100% B. Multiple reaction monitoring was used to detect LCMs in the negative ion mode. […] Collision energies and lower limits of quantitation are listed in Supplementary Table 3.

The structures appear in SMILES notation. Some results are limits rather than exact numbers.

`Cc1c(C)c2c(c(C)c1O)CC[C@@](C)(CCCC(C)CCCC(C)CCCC(C)C(=O)O)O2` (stereo partly drawn) [4a, 13-((2R)-6-hydroxy-2,5,7,8-tetramethylchroman-2-yl)-2,6,10-trimethyltridecanoic acid] showed a half-maximal inhibitory concentration (IC50) in data set [1] above 3 µM. The “12-LO product formation/PMNL, residual activity” value in data set [1] (at 3 µM, mean ± s.e.m., n = 3, n.i. no inhibition) is listed as 55.3 ± 1.7 % of control. Moreover, the “α-T-13′-COOH (4a) concentration in human plasma” value in data set [2] lay within 8 to 49 nM.

The values are drawn from PMC6148290, “Endogenous metabolites of vitamin E limit inflammation by targeting 5-lipoxygenase” (Nature Communications, 2018).
